In the supplement of paper PMC10307832:

Legend:
Assay in all cases: relative viability (nuclei count vs DMSO), 5 days (fraction); higher = more cells survive
AZD5582 + Olaparib = compound: C[C@@H](C(=O)N[C@@H](C1CCCCC1)C(=O)N2CCC[C@H]2C(=O)N[C@@H]3[C@@H](CC4=CC=CC=C34)OCC#CC#CCO[C@@H]5CC6=CC=CC=C6[C@@H]5NC(=O)[C@@H]7CCCN7C(=O)[C@H](C8CCCCC8)NC(=O)[C@H](C)NC)NC [AZD5582] + O=C(c1cc(Cc2n[nH]c(=O)c3ccccc23)ccc1F)N1CCN(C(=O)C2CC2)CC1 [Olaparib] (partner 8 µM)
In short: (§1)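 Lung cancer cell lines in 1536-well plates were dosed by pin tool the day after seeding, either with one drug alone or with a fixed anchor-drug dose plus five library-drug doses (not always all listed) in √10 steps. After 5 days, cells were fixed and their nuclei stained in one step (final 0.05% Triton X-100, 1% formaldehyde, 1 ug/ml Hoechst), then counted on 4× images. Relative viability is the nuclei count in treated wells divided by that in vehicle wells. Values are medians of duplicate plates.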

AZD5582 + Luminespib = compound: C[C@@H](C(=O)N[C@@H](C1CCCCC1)C(=O)N2CCC[C@H]2C(=O)N[C@@H]3[C@@H](CC4=CC=CC=C34)OCC#CC#CCO[C@@H]5CC6=CC=CC=C6[C@@H]5NC(=O)[C@@H]7CCCN7C(=O)[C@H](C8CCCCC8)NC(=O)[C@H](C)NC)NC [AZD5582] + CCNC(=O)c1noc(-c2cc(C(C)C)c(O)cc2O)c1-c1ccc(CN2CCOCC2)cc1 [Luminespib] (partner 0.01 µM)
In short: as §1

Temozolomide + AZD7762 = compound: Cn1nnc2c(C(N)=O)ncn2c1=O [Temozolomide] + NC(=O)Nc1cc(-c2cccc(F)c2)sc1C(=O)N[C@H]1CCCNC1 [AZD7762] (partner 0.2 µM)
In short: as §1

[1] = compound: Cn1nnc2c(C(N)=O)ncn2c1=O [Temozolomide] + CS(=O)(=O)N1CCN(Cc2cc3nc(-c4cccc5[nH]ncc45)nc(N4CCOCC4)c3s2)CC1 [Pictilisib] (partner 1 µM)
In short: as §1

Cell Line | relative viability (AZD5582 + Olaparib; first compound 0.001581 µM) | relative viability (AZD5582 + Olaparib; first compound 0.005 µM) | relative viability (AZD5582 + Olaparib; first compound 0.01581 µM) | relative viability (AZD5582 + Olaparib; first compound 0.05 µM) | relative viability (AZD5582 + Luminespib; first compound 0.001581 µM) | relative viability (AZD5582 + Luminespib; first compound 0.005 µM) | relative viability (AZD5582 + Luminespib; first compound 0.01581 µM) | relative viability (AZD5582 + Luminespib; first compound 0.05 µM) | relative viability (Temozolomide + AZD7762; first compound 0.2 µM) | relative viability (Temozolomide + AZD7762; first compound 0.6325 µM) | relative viability (Temozolomide + AZD7762; first compound 2 µM) | relative viability (Temozolomide + AZD7762; first compound 6.325 µM) | relative viability (Temozolomide + AZD7762; first compound 20 µM) | relative viability ([1]; first compound 0.2 µM) | relative viability ([1]; first compound 0.6325 µM) | relative viability ([1]; first compound 2 µM) | relative viability ([1]; first compound 6.325 µM) | relative viability ([1]; first compound 20 µM)
NCI-H650 | 0.321 | 0.32 | 0.366 | 0.307 | 0.704 | 0.68 | 0.745 | 0.636 | 0.973 | 1.16 | 0.938 | 0.953 | 0.879 | 0.875 | 0.97 | 0.943 | 0.865 | 0.908
LC-2-ad | 0.68 | 0.715 | 0.659 | 0.805 | 1.1 | 1.03 | 0.942 | 0.901 | 0.842 | 0.85 | 0.873 | 0.837 | 0.675 | 0.554 | 0.546 | 0.511 | 0.593 | 0.481
NCI-H3122 | 0.634 | 0.557 | 0.641 | 0.537 | 0.0928 | 0.0812 | 0.0752 | 0.0956 | 1.02 | 1.05 | 1.01 | 0.922 | 0.934 | 0.521 | 0.657 | 0.59 | 0.57 | 0.553
NCI-H441 | 0.504 | 0.541 | 0.603 | 0.395 | 0.313 | 0.388 | – | 0.422 | 1.27 | 1.12 | 1.04 | 1.13 | 1.13 | 0.437 | 0.443 | 0.543 | 0.375 | 0.51
LOU-NH91 | 0.875 | 0.945 | 0.928 | 0.903 | 0.391 | 0.321 | 0.33 | 0.342 | 0.77 | 0.784 | 0.836 | 0.79 | 0.75 | 0.512 | 0.547 | 0.551 | 0.523 | 0.497
LXF-289 | 0.98 | 0.995 | 0.953 | 1.02 | 0.76 | 0.561 | 0.627 | 0.749 | 1.12 | 1.08 | 1.08 | 1.06 | 1.07 | 0.814 | 0.788 | 0.823 | 0.737 | 0.655
HCC-827 | 0.662 | 0.807 | 0.626 | 0.68 | 0.61 | 0.755 | 0.664 | 0.743 | 0.147 | 0.193 | 0.196 | 0.227 | 0.119 | 0.82 | 0.958 | 1.06 | 1.05 | 0.313
RERF-LC-KJ | – | – | 0.852 | 0.691 | – | – | 1.22 | 1.06 | 0.977 | 0.926 | 0.989 | 0.953 | 1.01 | 0.625 | 0.564 | 0.557 | 0.501 | 0.467
NCI-H1792 | 0.343 | 0.466 | 0.337 | 0.409 | – | 0.594 | 0.496 | 0.579 | 0.9 | 0.775 | 0.711 | 0.532 | 0.676 | 0.199 | 0.304 | 0.241 | 0.314 | 0.256
ChaGo-K-1 | 0.435 | 0.41 | 0.421 | 0.442 | 0.518 | 0.691 | 0.518 | 0.633 | 0.939 | 0.902 | 0.922 | 0.858 | 0.904 | 0.784 | 0.904 | 1.02 | 0.635 | 0.581
HARA | 0.76 | 0.761 | 0.812 | 0.841 | 0.39 | 0.727 | 0.733 | 1.21 | 0.358 | 0.322 | 0.299 | 0.395 | 0.305 | 0.376 | 0.484 | 0.603 | 0.438 | 0.256
ABC-1 | 0.845 | 0.724 | 0.891 | 0.976 | 0.518 | 0.243 | – | 0.369 | 0.712 | 0.761 | 0.761 | 0.762 | 0.763 | 0.726 | 0.8 | 0.881 | 0.609 | 0.53
NCI-H1734 | 0.569 | 0.59 | 0.615 | 0.746 | 0.172 | 0.192 | 0.17 | 0.188 | 0.642 | 0.623 | 0.646 | 0.488 | 0.559 | 0.508 | 0.418 | 0.475 | 0.429 | 0.426
EKVX | 0.777 | 0.894 | 0.725 | 0.854 | 0.859 | 0.972 | 0.787 | 0.803 | – | 0.743 | 0.681 | 0.67 | 0.418 | 0.23 | 0.38 | 0.391 | 0.379 | 0.273
NCI-H1915 | 0.279 | 0.244 | 0.25 | 0.226 | 0.756 | 0.782 | 0.693 | 0.829 | 0.757 | 0.652 | 0.584 | 0.281 | 0.27 | 1.11 | 0.914 | 0.962 | 0.468 | 0.326
NCI-H1395 | 0.445 | 0.433 | – | 0.464 | 0.579 | 0.685 | 0.805 | 0.91 | 0.385 | 0.381 | 0.454 | 0.332 | 0.362 | 0.554 | 0.631 | 0.719 | 0.612 | 0.572
HCC-44 | 0.942 | 0.958 | 0.949 | 0.903 | 0.921 | 1.12 | 0.96 | 1.2 | 1.03 | 1 | 1.03 | 1.11 | 1.05 | 0.599 | 0.611 | 0.69 | 0.566 | 0.534
